Reference: US7026308B1, “Topical anti-microbial compositions” (The Procter & Gamble Company, priority 1999, dated 2006)
Blank lines part the entries; values can stand above or below the molecule they belong to.

What was measured:
[1] = tested on: Malassezia furfur (ATCC 14521); test: Kill Rate Test (KRT) in mDixon broth; type: cell-based
Method: Experiments were conducted to investigate the efficacy of the composition of the present invention to inhibit the survival, growth, and proliferation of microorganisms in topical compositions. The test microorganism was Malassezia furfur. The Kill Rate Test (KRT) results are indicative of anti-fungal efficacy. Generally, the greater the inhibition of fungal growth in this test, the better the anti-fungal efficacy of the compound(s) tested. A flask containing mDixon broth medium (see Gueho, et al. Antoinie Leeuwenhoek (1996), no. 69, 337–55, which description is incorporated by reference herein) was inoculated with Malassezia furfur. Specific concentrations of active(s) were then added to the flask Samples were then withdrawn from the flask at specified time points, diluted in sterile water, and spread across the surface of a mDixon agar plate. […] The lower the CFU/ml count, the better activity the active(s) have against M. furfur. […] Experimental Procedure • 1. […] For Mg^2+, Ag^+, Mn ^2+, Bi^3+, and Na^+ Step 8 was repeated at the 24 and 48 hour time points.

[2] = tested on: Malassezia furfur (ATCC 14521); test: Minimum Inhibitory Concentration (MIC) in mDixon agar; type: cell-based; settings: for MIC (ppm of metal ion) Alone: M. furfur, 5 days 30°; for MIC (ppm of metal ion) +0.5 ppm ZPT: metal ion in combination with 0.5 ppm ZPT (sub-MIC); for MIC (ppm of metal ion) +2 ppm ZPT: metal ion in combination with 2 ppm ZPT (sub-MIC); for MIC (ppm of metal ion) +4 ppm ZPT: metal ion in combination with 4 ppm ZPT (sub-MIC)
[3] = Table 2(a), 0.05% metal salt (with 10 ppm ZPT where labelled)
[4] = Table 2(a), 0.5% metal salt (with 10 ppm ZPT where labelled)
[5] = Table 2(b), 0.05% metal salt (with 10 ppm ZPT where labelled)
[6] = Table 2(b), 0.5% metal salt (with 10 ppm ZPT where labelled)

SMILES: O=S(=O)([O-])[O-].[Ag+].[Ag+] [Ag2SO4]
- Plate Area Colonized, 0 Hours [1, 3]: 3.97E+06 mm2
- Plate Area Colonized, 24 Hours [1, 3]: 7.46E+05 mm2
- Plate Area Colonized, 48 Hours [1, 3]: 1.22E+05 mm2
- Plate Area Colonized, 0 Hours [1, 4]: 3.97E+06 mm2
- Plate Area Colonized, 24 Hours [1, 4]: 1.65E+06 mm2
- Plate Area Colonized, 48 Hours [1, 4]: 1.00E+00 mm2

SMILES: [Cl][Bi]([Cl])[Cl] [BiCl3]
- Plate Area Colonized, 0 Hours [1, 3]: 3.97E+06 mm2
- Plate Area Colonized, 24 Hours [1, 3]: 1.96E+07 mm2
- Plate Area Colonized, 48 Hours [1, 3]: 3.03E+06 mm2
- Plate Area Colonized, 0 Hours [1, 4]: 3.97E+06 mm2
- Plate Area Colonized, 24 Hours [1, 4]: 1.11E+06 mm2
- Plate Area Colonized, 48 Hours [1, 4]: 3.42E+05 mm2

SMILES: [Cu+2] [Copper (2+)]
- MIC (ppm of metal ion) Alone [2]: 5000 ppm
- MIC (ppm of metal ion) +0.5 ppm ZPT [2]: 5000 ppm
- MIC (ppm of metal ion) +2 ppm ZPT [2]: <0.5 ppm
- MIC (ppm of metal ion) +4 ppm ZPT [2]: <0.005 ppm
- MIC (ppm of metal ion) +4 ppm ZPT ([2]; listed as copper ions): less than 0.005 ppm

SMILES: O=S(=O)([O-])[O-].[Cu+2] [CuSO4]
- Plate Area Colonized, 0 Hours [1, 5]: 2.12E+07 mm2
- Plate Area Colonized, 4 Hours [1, 5]: 9.49E+07 mm2
- Plate Area Colonized, 24 Hours [1, 5]: 1.81E+08 mm2
- Plate Area Colonized, 48 Hours [1, 5]: 3.32E+08 mm2
- Plate Area Colonized, 0 Hours [1, 6]: 2.12E+07 mm2
- Plate Area Colonized, 4 Hours [1, 6]: 1.00E+00 mm2
- Plate Area Colonized, 24 Hours [1, 6]: 1.00E+00 mm2
- Plate Area Colonized, 48 Hours [1, 6]: 1.00E+00 mm2

SMILES: [Hg+2] [Mercury (2+)]
- MIC (ppm of metal ion) Alone [2]: 50 ppm
- MIC (ppm of metal ion) +4 ppm ZPT [2]: 5 ppm

SMILES: O=S(=O)([O-])[O-].[Mg+2] [MgSO4]
- Plate Area Colonized, 0 Hours [1, 3]: 3.97E+06 mm2
- Plate Area Colonized, 24 Hours [1, 3]: 4.35E+06 mm2
- Plate Area Colonized, 48 Hours [1, 3]: 9.68E+06 mm2
- Plate Area Colonized, 0 Hours [1, 4]: 3.97E+06 mm2
- Plate Area Colonized, 24 Hours [1, 4]: 1.81E+07 mm2
- Plate Area Colonized, 48 Hours [1, 4]: 9.50E+06 mm2

SMILES: O=S(=O)([O-])[O-].[Mn+2] [MnSO4]
- Plate Area Colonized, 0 Hours [1, 3]: 3.97E+06 mm2
- Plate Area Colonized, 24 Hours [1, 3]: 1.97E+07 mm2
- Plate Area Colonized, 48 Hours [1, 3]: 5.91E+06 mm2
- Plate Area Colonized, 0 Hours [1, 4]: 3.97E+06 mm2
- Plate Area Colonized, 24 Hours [1, 4]: 1.16E+05 mm2
- Plate Area Colonized, 48 Hours [1, 4]: 2.35E+02 mm2

SMILES: O=S(=O)([O-])[O-].[Na+].[Na+] [Na2SO4]
- Plate Area Colonized, 0 Hours [1, 3]: 3.97E+06 mm2
- Plate Area Colonized, 24 Hours [1, 3]: 3.75E+07 mm2
- Plate Area Colonized, 48 Hours [1, 3]: 3.42E+06 mm2
- Plate Area Colonized, 0 Hours [1, 4]: 3.97E+06 mm2
- Plate Area Colonized, 24 Hours [1, 4]: 1.44E+07 mm2
- Plate Area Colonized, 48 Hours [1, 4]: 2.95E+06 mm2

SMILES: [O-]n1ccccc1=S.[O-]n1ccccc1=S.[Zn+2] [ZPT, zinc salt of 1-hydroxy-2-pyridinethione, reference compound]
- Plate Area Colonized, 0 Hours ([1]; Table 2(a), 10 ppm): 3.97E+06 mm2
- Plate Area Colonized, 24 Hours ([1]; Table 2(a), 10 ppm): 2.52E+05 mm2
- Plate Area Colonized, 48 Hours ([1]; Table 2(a), 10 ppm): 2.30E+03 mm2
- Plate Area Colonized, 0 Hours ([1]; Table 2(b), 10 ppm): 2.12E+07 mm2
- Plate Area Colonized, 4 Hours ([1]; Table 2(b), 10 ppm): 3.49E+07 mm2
- Plate Area Colonized, 24 Hours ([1]; Table 2(b), 10 ppm): 6.44E+06 mm2
- Plate Area Colonized, 48 Hours ([1]; Table 2(b), 10 ppm): 4.86E+05 mm2

- MIC (ppm of metal ion) Alone [2]: 5000 ppm
- MIC (ppm of metal ion) +0.5 ppm ZPT [2]: 500 ppm
- MIC (ppm of metal ion) +2 ppm ZPT [2]: 50 ppm
- MIC (ppm of metal ion) +4 ppm ZPT [2]: 5 ppm
SMILES: [Zn+2] [Zinc (2+)]

SMILES: O=S(=O)([O-])[O-].[Zn+2] [ZnSO4]
- Plate Area Colonized, 0 Hours [1, 5]: 2.12E+07 mm2
- Plate Area Colonized, 4 Hours [1, 5]: 8.14E+07 mm2
- Plate Area Colonized, 24 Hours [1, 5]: 7.22E+07 mm2
- Plate Area Colonized, 48 Hours [1, 5]: 3.44E+08 mm2
- Plate Area Colonized, 0 Hours [1, 6]: 2.12E+07 mm2
- Plate Area Colonized, 4 Hours [1, 6]: 2.21E+07 mm2
- Plate Area Colonized, 24 Hours [1, 6]: 2.69E+06 mm2
- Plate Area Colonized, 48 Hours [1, 6]: 1.86E+05 mm2
